According to patent publication US5607691A, “Compositions and methods for enhanced drug delivery” (priority 1995, dated 1997):
Counter-ions that a name gives are not always drawn. Like-named read-outs stand apart in the source and are kept apart here.

Assay: in vitro
Format: in vitro ADME, human
From the text: Table 4 lists the serum half-lives for several model compounds and two representative pharmaceutical agent-chemical modifier complexes using an in vitro assay system described in the Experimental section below. Of course, the serum half-lives will vary in vivo depending upon the age and health condition of the patient. Each complex comprises a model compound or a pharmaceutical agent, a spacer group, and a chemical modifier. Many of the model compounds utilize 4-nitrophenyl(ethanol, propanol, or cyclohexanol) or 4-nitrophenylethylamine as the "model" pharmaceutical agent. A more complete listing of serum half-lives may be found in the Experimental section below.
General procedure for serum hydrolysis of pharmaceutical agent-modifier complexes
Stock solutions (6 mM) of the pharmaceutical agent-modifier complexes were prepared in ethanol (by vortexing, sonication or warming at 37° C. if necessary). If required for solubility, a drop of dimethylsulfoxide, dimethylformamide or methanol may be added. (Acetonitrile cannot be used because it deactivates the serum enzymes.)
HPLC separation methods were established for each study by dilution of the above stock solution (6 μl) in acetonitrile (1 ml) to give a 36 μM solution. Samples (10 μl) were injected onto a Nucleosil 5C8 (250×4 mmID) and guard column (11×4 mm ID) and eluted with a mobile phase of approximately 65% HPLC grade water and 35% of a solution of 0.1% trifluoroacetic acid in acetonitrile, the exact proportions being adjusted in each case to give optimum separation and run times.
Freshly defrosted human serum (3 ml, Sigma) was warmed at 37° C. for five minutes and then 60 μl of the agent-modifier complex stock solution was added with vortexing. […] The aliquots were added to 800 μl of 2% zinc sulfate solution in a 1.5 ml disposable microcentrifuge tube, vortexed immediately and centrifuged at 14,000 RPM for 3 minutes. The supernatants (10 μl) were then injected onto the HPLC and peak areas were used to determine the % remaining. Serum blanks were prepared similarly by addition of serum to the zinc sulfate solution followed by centrifugation, and time=0 samples were also prepared by adding serum to the zinc sulfate solution followed by addition of the complex and separation by centrifugation. The time=0 samples, as well as the original stock solutions, were also used to study the stability of the complex in the absence of enzyme. Half-lives were calculated using the equation
by plotting time (x) vs. ln % remaining (y) to obtain the slope (m) and the y intercept (b).

[1] = human, serum, Table 5, human serum, 37° C., read-out: Serum Half-life (converted)
[2] = human, serum, Table 4, human serum, 37° C., read-out: In vitro Half-Life (converted)
[3] = human, serum, Table 4, read-out: serum half-life (converted)

Row | Compound | half-life [1] | further results
1 | 2-(4-nitrophenyl)ethylamine choline chloride carbamate |  | In vitro Half-Life (human, serum): 86 h; Serum Half-life (human, serum): 86 h
2 | COC(=O)CC(CN(C)C)OC(=O)Cc1c(C)n(C(=O)c2ccc(Cl)cc2)c2ccc(OC)cc12 (racemic) [3-O-(indomethacinoyl)-D,L-norcarnitine methyl ester] | 257 min | Serum Half-life (Table 5, human serum, 37° C., listed as O-indomethacinyl-(D,L-norcarnitine methyl ester)): 4.3 h
3 | COC(=O)CC(C[N+](C)(C)C)OC(=O)Cc1c(C)n(C(=O)c2ccc(Cl)cc2)c2ccc(OC)cc12 (racemic) [O-indomethacinyl-(D,L-carnitine methyl ester), iodide salt] | 660 min | 
4 | COc1cc(NC(=O)OCC[N+](C)(C)C)c(Cl)cc1C(=O)N[C@H]1CCN(CCCOc2ccc(F)cc2)C[C@H]1OC (relative stereo) [cisapride choline carbamate, chloride salt] | 150 min | 
5 | COc1cc(NC(=O)c2ccc[n+](C)c2)c(Cl)cc1C(=O)N[C@H]1CCN(CCCOc2ccc(F)cc2)C[C@H]1OC (relative stereo) [cisapride-(N-(1-methylpyridinium-3-carboxamide), chloride salt] | 60 min | 
6 | COc1cc(N)c(Cl)cc1C(=O)N[C@H]1CC[N+](CCCOc2ccc(F)cc2)(COC(=O)CCCCC[N+](C)(C)C)C[C@H]1OC (relative stereo) [cisapride-N-(6-trimethylammoniohexanoyloxymethylammonio), diiodide salt] | 60 min | 
7 | COc1cc(N)c(Cl)cc1C(=O)N[C@H]1CC[N+](CCCOc2ccc(F)cc2)(COC(C)=O)C[C@H]1OC (relative stereo) [cisapride-N-acetoxymethylammonio, iodide salt] | 6.5 min | 
8 | CCCC(=O)OC[N+]1(CCCOc2ccc(F)cc2)CC[C@H](NC(=O)c2cc(Cl)c(N)cc2OC)[C@H](OC)C1 (relative stereo) [cisapride-N-butyroyloxymethylammonio, iodide salt] | 7.6 min | 
9 | CCOC(=O)OC[N+]1(CCCOc2ccc(F)cc2)CC[C@H](NC(=O)c2cc(Cl)c(N)cc2OC)[C@H](OC)C1 (relative stereo) [cisapride-N-ethyoxycarbonyloxymethylammonio, iodide salt] | 4.4 min | 
10 | CCCCCCCCCCCC(=O)OC[N+]1(CCCOc2ccc(F)cc2)CC[C@H](NC(=O)c2cc(Cl)c(N)cc2OC)[C@H](OC)C1 (relative stereo) [cisapride-N-lauroyloxymethylammonio, iodide salt] | 5.4 min | 
11 | CC(=O)O[C@H](CC(=O)NCCCCCC(=O)OC(C)Cc1ccc([N+](=O)[O-])cc1)C[N+](C)(C)C (stereo partly drawn) [1-(4-nitrophenyl)-2-propanol 6-(O-acetyl-L-carnitinamido)hexanoate ester] | 21.4 min | half-life [2]: 21.4 min; half-life [3]: 21.4 min
12 | CC(=O)O[C@H](CC(=O)NCCCCCCOC(=O)OC(C)Cc1ccc([N+](=O)[O-])cc1)C[N+](C)(C)C (stereo partly drawn) [1-(4-nitrophenyl)-2-propanol 6-(O-acetyl-L-carnitinamido)hexanol carbonate, chloride salt] | 3.5 min | half-life [2]: 3.5 min
13 | CC(=O)O[C@H](CC(=O)NCCCCCC(=O)OCCc1ccc([N+](=O)[O-])cc1)C[N+](C)(C)C [2-(4-Nitrophenyl)ethanol 6-(O-acetyl-L-carnitinamido)hexanoate ester, chloride salt] | 0.132 min | half-life [2]: 0.132 min; half-life [3]: 0.132 min
14 | O=C(OCCc1ccc([N+](=O)[O-])cc1)c1ccc(N2CCOCC2)cc1 [2-(4-nitrophenyl)ethanol 4-morpholino benzoate] |  | In vitro Half-Life (human, serum): 0.0127 h
15 | O=C(OCCc1ccc([N+](=O)[O-])cc1)c1ccc(CN2CCOCC2)cc1 [2-(4-nitrophenyl)ethanol 4-morpholinomethyl-benzoate] | 0.762 min | 
16 | O=C(CCCCCN1CCOCC1)OCCc1ccc([N+](=O)[O-])cc1 [2-(4-nitrophenyl)ethanol 6-morpholino-hexanoate] | 0.463 min | half-life [2]: 0.463 min
17 | C[N+](C)(C)CCOC(=O)OCCc1ccc([N+](=O)[O-])cc1 [2-(4-nitrophenyl)ethanol choline chloride carbonate ester] | < 0.0333 min | half-life [2]: < 0.0333 min
18 | CC(=O)O[C@H](CC(=O)NCCC(=O)OCCc1ccc([N+](=O)[O-])cc1)C[N+](C)(C)C [2-(4-nitrophenyl)ethyl 3-(O-acetyl-L-carnitinamido)propanoate] | 5.5 min | half-life [2]: 5.5 min; half-life [3]: 5.5 min

Row | Compound | half-life [1] | further results
19 | CC(=O)O[C@H](CC(=O)NCCc1ccc([N+](=O)[O-])cc1)C[N+](C)(C)C [2-(4-nitrophenyl)ethylamine 3-(O-acetyl)-L-carnitine amide, chloride salt] | 1570 min | half-life [2]: 1570 min
20 | C[C@]12CC[C@@H]3c4ccc(OC(=O)OCC[N+](C)(C)C)cc4CC[C@H]3[C@@H]1CC[C@@H]2O [3,17β-estradiol-3-choline carbonate, iodide salt] | 1.53 min | 
21 | C[C@]12CC[C@@H]3c4ccc(O)cc4CC[C@H]3[C@@H]1CC[C@@H]2OC(=O)C[N+](C)(C)C [3,17β-estradiol-17β-betaine ester, chloride salt] | 270 min | 
22 | C[C@]12CC[C@@H]3c4ccc(O)cc4CC[C@H]3[C@@H]1CC[C@@H]2OC(=O)OCC[N+](C)(C)C [3-hydroxy-17β-estra-trienyl N,N,N-trimethylaminoethyl carbonate, iodide salt] | 16 min | 
23 | CC(=O)O[C@H](CC(=O)OCCCCCCOC(=O)O[C@H]1CC[C@H]2[C@@H]3CCc4cc(O)ccc4[C@H]3CC[C@]12C)C[N+](C)(C)C [3-hydroxy-estra-1,3,5-trien-17β-yl 6-(O-acetyl-L-carnitinato)hexyl carbonate, chloride salt] |  | half-life [2]: 240 min
24 | C[N+](C)(C)CCOC(=O)OC1CCC(c2ccc([N+](=O)[O-])cc2)CC1 (stereo not drawn) [4-(4-nitrophenyl)cyclohexanol choline carbonate ester, iodide salt] | 0.327 min | half-life [2]: 0.327 min
25 | CCCC(=O)OCn1c(=O)c(F)cn(C(C)OC(=O)CCC[N+](C)(C)C)c1=O.[I-] (stereo not drawn) [5-fluorouracil-1-(4-trimethylammoniobutyroyl-1-oxyethyl)-3-(butyroyloxymethyl), iodide salt] |  | Serum Half-life (Table 5, human serum, 37° C.): 0.162 h
26 | CCCC(=O)OCn1c(=O)c(F)cn(COC(=O)CCC[N+](C)(C)C)c1=O [5-fluorouracil-1-(4-trimethylammoniobutyroyloxymethyl)-3-(butyroyloxymethyl), iodide salt] | 204 min | 
27 | CCCCCCCCCCCC(=O)OCn1c(=O)c(F)cn(C(C)OC(=O)CCC[N+](C)(C)C)c1=O.[I-] (stereo not drawn) [5-fluorouracil-1-(N-(4-trimethylammoniobutyroyloxy-1-ethyl)-3-(N-lauroyloxymethyl), iodide salt] |  | Serum Half-life (Table 5, human serum, 37° C.): 0.217 h
28 | CCCCCCCCCCCC(=O)OCn1c(=O)c(F)cn(COC(=O)CCC[N+](C)(C)C)c1=O [5-fluorouracil-1-(N-(4-trimethylammoniobutyroyloxymethyl)-3-(N-lauroxyoxymethyl), iodide salt] | 192 min | 
29 | CCCCCCCCCCCC(=O)OCn1cc(F)c(=O)[nH]c1=O [5-fluorouracil-1-(lauroyloxmethyl)] | 3.23 min | 
30 | CCCCCCCCCCCC(=O)OCn1cc(F)c(=O)n(COC(=O)CCC[N+](C)(C)C)c1=O [5-fluorouracil-1-(lauroyloxymethyl)-3-(4-trimethylammoniobutyroxyoxymethyl), iodide salt] | 420 min | 
31 | CCCCCCCCCCCC(=O)OCn1cc(F)c(=O)n(COC(=O)OCC[N+](C)(C)C)c1=O [5-fluorouracil-1-(lauroyloxymethyl)-3-(cholinecarbonyloxymethyl), iodide salt] | 27 min | 
32 | CC(=O)O[C@H](CC(=O)Oc1ccc2c(c1)CC[C@@H]1[C@@H]2CC[C@]2(C)[C@@H](O)CC[C@@H]12)C[N+](C)(C)C [17β-estradiol-3-(O-acetyl-L-carnitine) ester] | 8 min | 
33 | CC(=O)O[C@H](CC(=O)O[C@H]1CC[C@H]2[C@@H]3CCc4cc(O)ccc4[C@H]3CC[C@]12C)C[N+](C)(C)C [17β-estradiol-17β-(O-acetyl-L-carnitine) ester] | 240 min | 
34 | COc1ccc2c(c1)c(CC(=O)OCC[N+](C)(C)C)c(C)n2C(=O)c1ccc(Cl)cc1 [(indomethacinyl)choline iodide, indomethacinylcholine iodide] | < 1 min | 
35 | C[C@]12CC[C@@H]3c4ccc(O)cc4CC[C@H]3[C@@H]1CC[C@@H]2OC(=O)NCC(=O)OCC[N+](C)(C)C [N-[3-hydroxy-estra-1,3,5(10-trien-17β-yl)oxycarbonyl] glycine (choline iodide) ester] | 1.62 min | 
